Laboratory results taken from ChEMBL document CHEMBL5244279, “Perspectives on SARS-CoV-2 Main Protease Inhibitors” (J Med Chem, 2021).
Peptide text beside a SMILES is read from it.

Key:
[1] = target: T1, Replicase polyprotein 1ab (Severe acute respiratory syndrome coronavirus 2, UniProt P0DTD1); experiment: Inhibition of N-terminal MBP-tagged SARS CoV-2 Main protease by fluorescence based analysis
[2] = Inhibition of SARS CoV N-terminal his-tagged Main protease using Dabcyl-KTSAVLQSGFRKME-Edan peptide as substrate by fluorescence based analysis; parameters: species or system Severe acute respiratory syndrome-related coronavirus
[3] = Binding affinity to SARS CoV N-terminal his-tagged Main protease using Dabcyl-KTSAVLQSGFRKME-Edan peptide as substrate by fluorescence based analysis; parameters: species or system Severe acute respiratory syndrome-related coronavirus
[4] = Cytotoxicity against mouse L929 cells assessed as reduction of cell viability; format: toxicity, cell-based
[5] = Cytotoxicity against cat CRFK cells assessed as reduction of cell viability; format: toxicity, cell-based, Felis catus
[6] = Cytotoxicity against human Huh-7 cells assessed as reduction of cell viability; format: toxicity, cell-based
[7] = Cytotoxicity against African green monkey Vero E6 cells assessed as reduction of cell viability by CellTiterGlo assay; format: toxicity, cell-based, Vero C1008; details: chlorocebus sabaeus
SARS-CoV [8] = experiment: Antiviral activity against SARS CoV infected in human Calu-3 cells assessed as reduction in viral RNA replication by qPCR analysis; format: functional, organism-based; details: Severe acute respiratory syndrome-related coronavirus
[9] = Inhibition of SARS CoV Main protease using Dabcyl-KTSAVLQSGFRKM-E(Edans)-NH2 peptide as substrate by FRET assay; parameters: species or system Severe acute respiratory syndrome-related coronavirus
SARS-CoV-2 [10] = format: functional, organism-based, Vero E6; details: Severe acute respiratory syndrome coronavirus 2, Vero C1008
[11] = Cytotoxicity against human HCT-8 cells assessed as reduction in cell viability by neutral red uptake assay; format: toxicity, cell-based
[12] = Oral bioavailability in Sprague-Dawley rat; format: ADME, organism-based; details: in vivo
SARS-CoV-2 [13] = format: functional, organism-based, Vero E6; details: Severe acute respiratory syndrome coronavirus 2, strain 107, Vero C1008
[14] = Cytotoxicity against African green monkey Vero cells assessed as reduction in cell viability by neutral red uptake assay; format: toxicity, cell-based; details: chlorocebus sabaeus
[15] = Cytotoxicity against human Caco-2 cells assessed as reduction in cell viability by neutral red uptake assay; format: toxicity, cell-based
[16] = Cytotoxicity against dog MDCK cells assessed as reduction in cell viability by neutral red uptake assay; format: toxicity, cell-based, Canis lupus familiaris
[17] = Cytotoxicity against human A549 cells assessed as reduction in cell viability by neutral red uptake assay; format: toxicity, cell-based
[18] = target: T1, Replicase polyprotein 1ab; experiment: Inhibition of SARS CoV-2 Main protease using MCA-AVLQSGFR-Lys(DNP)-Lys-NH2 peptide as substrate by fluorescence based analysis
SARS-CoV [19] = format: functional, organism-based, Vero E6; details: Severe acute respiratory syndrome-related coronavirus, 2019-nCoV/USA_WA1/2020, Vero C1008, 72 h
[20] = Binding affinity to SARS CoV Main protease incubated for 20 mins by reverse-phase HPLC analysis; parameters: species or system Severe acute respiratory syndrome-related coronavirus
[21] = Inhibition of SARS CoV Main protease by FRET assay; parameters: species or system Severe acute respiratory syndrome-related coronavirus
[22] = target: T1, Replicase polyprotein 1ab; experiment: Inhibition of SARS CoV-2 Main protease incubated for 10 min by FRET assay
[23] = Binding affinity to SARS CoV Main protease incubated for 10 mins by FRET assay; parameters: species or system Severe acute respiratory syndrome-related coronavirus

## Cc1cc(S(=O)(=O)c2c([N+](=O)[O-])cc(C(F)(F)F)cc2[N+](=O)[O-])c(Cl)cc1Cl
[1]
  IC50: 300 nM

## O=C(Oc1ccc(S(=O)(=O)c2ccc(OC(=O)C(Cl)=C(Cl)Cl)cc2)cc1)C(Cl)=C(Cl)Cl
[2]
  IC50: 900 nM

## CCN(CC)c1ccc(C(=O)On2nnc3ccccc32)cc1
[3]
  Ki: 11.1 nM

## CC(C)C[C@H](NC(=O)OCc1ccccc1)C(=O)N[C@@H](C[C@@H]1CCNC1=O)C(O)S(=O)(=O)O (some centres not stated)
[4]
  CC50: > 200000 nM
[5]
  CC50: > 200000 nM
[6]
  CC50: > 200000 nM
[7]
  CC50: > 200000 nM

## O=C(/C=C/c1ccccc1)N[C@@H](CC1CCCCC1)C(=O)N[C@@H](C[C@@H]1CCNC1=O)C(=O)C(=O)NCc1ccccc1
SARS-CoV [8]
  EC50: 1400 nM
[9]
  IC50: 710 nM

## O=C(/C=C/c1ccccc1)N[C@@H](CC1CC1)C(=O)N[C@@H](C[C@@H]1CCNC1=O)C(=O)C(=O)NCc1ccccc1
SARS-CoV [8]
  EC50: 1900 nM
[9]
  IC50: 240 nM

## CC(C)[C@H](NC(=O)[C@H](C)NC(=O)OCc1ccccc1)C(=O)N[C@@H](Cc1ccccc1)[C@@H](O)[C@H](O)[C@H](Cc1ccccc1)NC(=O)[C@@H](NC(=O)[C@H](C)NC(=O)OCc1ccccc1)C(C)C
[2]
  Ki: 600 nM

## CC(C)C[C@H](NC(=O)/C=C/c1ccccc1)C(=O)N[C@@H](C[C@@H]1CCNC1=O)C(=O)C(=O)NCc1ccccc1
SARS-CoV [8]
  EC50: 7200 nM
[9]
  IC50: 330 nM

## O=C(On1nnc2ccccc21)c1cc2ccccc2[nH]1
[3]
  Ki: 12.3 nM

## O=C[C@H](C[C@@H]1CCNC1=O)NC(=O)[C@H](Cc1ccccc1)NC(=O)/C=C/c1ccc(Cl)cc1F
SARS-CoV-2 [10]
  IC50: 200 nM

## O=C[C@H](C[C@@H]1CCNC1=O)NC(=O)[C@H](CC1CCCCC1)NC(=O)c1cc2ccccc2[nH]1
[4]
  CC50: > 100000 nM
[5]
  CC50: > 100000 nM
[6]
  CC50: > 100000 nM
[7]
  CC50: > 100000 nM

## CC(C)C[C@H](NC(=O)OCc1ccccc1)C(=O)N[C@H](C=O)C[C@@H]1CCNC1=O
[4]
  CC50: […]
SARS-CoV-2 [10]
  IC50: 70 nM
[5]
  CC50: […]
[6]
  CC50: […]

## O=C(On1nnc2ccccc21)c1ccc2[nH]ccc2c1
[3]
  Ki: 7.5 nM
[2]
  IC50: 200 nM

## CC(C)C[C@H](NC(=O)OCC1CCC(F)(F)CC1)C(=O)N[C@H](C=O)C[C@@H]1CCNC1=O
[4]
  CC50: > 100000 nM
[5]
  CC50: > 100000 nM
[6]
  CC50: > 100000 nM

## CC(C)C[C@H](NC(=O)OCC1CCC(F)(F)CC1)C(=O)N[C@@H](C[C@@H]1CCNC1=O)C(O)S(=O)(=O)O (some centres not stated)
[4]
  CC50: > 100000 nM
[5]
  CC50: > 100000 nM
[6]
  CC50: > 100000 nM
[11]
  CC50: > 100000 nM

## CN(C)c1ccc(/C=C/C(=O)N[C@@H](Cc2ccccc2)C(=O)N[C@H](C=O)C[C@@H]2CCNC2=O)cc1
SARS-CoV-2 [10]
  IC50: 500 nM

## CC1(C)[C@@H]2[C@@H](C(=O)N[C@H](C=O)C[C@@H]3CCNC3=O)N(C(=O)COc3ccc(OC(F)(F)F)cc3)C[C@@H]21
[12]
  bioavailability: 14.6%
SARS-CoV-2 [13]
  EC50: 860 nM

## CC(C)C[C@H](NC(=O)/C=C/c1ccccc1)C(=O)N[C@H](C=O)C[C@@H]1CCNC1=O
SARS-CoV-2 [10]
  IC50: 830 nM

## CCC[C@H](NC(=O)[C@H](CC(C)C)NC(=O)OCc1ccccc1)C(=O)C(=O)NCc1ccccn1
[14]
  CC50: > 100000 nM
[15]
  CC50: > 100000 nM
[16]
  CC50: > 100000 nM
[17]
  CC50: > 100000 nM

## Nc1ccccc1C(=O)On1nnc2ccccc21
[3]
  Ki: 19.5 nM

## CCOC(=O)/C=C/[C@H](C[C@@H]1CCNC1=O)NC(=O)[C@H](CC(C)C)NC(=O)[C@@H](NC(=O)OCc1ccccc1)[C@@H](C)OC(C)(C)C
[18]
  IC50: 151 nM
SARS-CoV [19]
  EC50: 2880 nM
[20]
  Ki: 58 nM

## CC(=O)/C=C/[C@H](C[C@@H]1CCNC1=O)NC(=O)[C@H](CC(C)C)NC(=O)[C@H](CNC(=O)C(C)(C)C)NC(=O)OCc1ccccc1
[20]
  Ki: 38 nM

## CC(C)C[C@H](NC(=O)OC1CCCCC1)C(=O)N[C@H](C=O)C[C@@H]1CCNC1=O
[4]
  CC50: > 100000 nM
SARS-CoV-2 [10]
  IC50: 3900 nM
[5]
  CC50: > 100000 nM
[6]
  CC50: > 100000 nM

## CNc1ccc(C(=O)On2nnc3ccccc32)cc1
[3]
  Ki: 12.1 nM

## O=C(On1nnc2ccccc21)c1ccc2[nH]cnc2c1
[3]
  Ki: 22.9 nM

## O=C[C@H](C[C@@H]1CCNC1=O)NC(=O)[C@@H]1[C@H]2CCC[C@H]2CN1C(=O)COc1ccc(Cl)cc1Cl
[12]
  bioavailability: 11.2%

## CC(C)C[C@H](NC(=O)OC1CCC(F)(F)CC1)C(=O)N[C@@H](C[C@@H]1CCNC1=O)C(O)S(=O)(=O)O (some centres not stated)
[4]
  CC50: > 100000 nM
[5]
  CC50: > 100000 nM
[6]
  CC50: > 100000 nM
[11]
  CC50: > 100000 nM
[21]
  IC50: 2200 nM

## CC(C)C[C@H](NC(=O)OC1CCC(F)(F)CC1)C(=O)N[C@H](C=O)C[C@@H]1CCNC1=O
[4]
  CC50: > 100000 nM
SARS-CoV-2 [10]
  IC50: 2300 nM
[5]
  CC50: > 100000 nM
[6]
  CC50: > 100000 nM
[21]
  IC50: 480 nM

## CC(C)[C@H](NC(=O)[C@H](C)NC(=O)OCc1ccccc1)C(=O)N[C@@H](Cc1c[nH]c2ccccc12)[C@@H](O)[C@H](O)[C@@H](Cc1c[nH]c2ccccc12)NC(=O)[C@@H](NC(=O)[C@H](C)NC(=O)OCc1ccccc1)C(C)C
[2]
  Ki: 73 nM

## CCCCC1CCC(OC(=O)N[C@@H](CC(C)C)C(=O)N[C@@H](C[C@@H]2CCNC2=O)C(O)S(=O)(=O)O)CC1 (some centres not stated)
[4]
  CC50: 59100 nM
[5]
  CC50: 59100 nM
[6]
  CC50: 59100 nM
[21]
  IC50: 1000 nM

## CCCC1CCC(OC(=O)N[C@@H](CC(C)C)C(=O)N[C@H](C=O)C[C@@H]2CCNC2=O)CC1 (some centres not stated)
[4]
  CC50: > 100000 nM
[5]
  CC50: > 100000 nM
[6]
  CC50: > 100000 nM

## O=C[C@H](C[C@@H]1CCNC1=O)NC(=O)[C@H](Cc1ccccc1)NC(=O)/C=C/c1cccc(Br)c1
SARS-CoV-2 [10]
  IC50: 700 nM

## CN(C)c1ccc(C(=O)On2nnc3ccccc32)cc1
[3]
  Ki: 17.4 nM

## CCCCC1CCC(OC(=O)N[C@@H](CC(C)C)C(=O)N[C@H](C=O)C[C@@H]2CCNC2=O)CC1 (some centres not stated)
[4]
  CC50: 63300 nM
SARS-CoV-2 [10]
  IC50: 900 nM
[5]
  CC50: 63300 nM
[6]
  CC50: 63300 nM

## CC1(C)[C@@H]2[C@@H](C(=O)N[C@H](C=O)C[C@@H]3CCNC3=O)N(C(=O)COc3cccc(C(F)(F)F)c3)C[C@@H]21
[22]
  IC50: 43.3 nM
SARS-CoV-2 [13]
  EC50: 17000 nM

## CC(C)C[C@H](NC(=O)/C=C\c1ccccc1)C(=O)N[C@H](C=O)C[C@@H]1CCCNC1=O
[23]
  Ki: 53 nM

## O=C(On1nnc2ccccc21)c1cc2cc(F)ccc2[nH]1
[3]
  Ki: 13.8 nM

## CCCC1CCC(OC(=O)N[C@@H](CC(C)C)C(=O)N[C@@H](C[C@@H]2CCNC2=O)C(O)S(=O)(=O)O)CC1 (some centres not stated)
[4]
  CC50: > 100000 nM
[5]
  CC50: > 100000 nM
[6]
  CC50: > 100000 nM

## CC(C)C[C@H](NC(=O)OC1CCCCC1)C(=O)N[C@@H](C[C@@H]1CCNC1=O)C(O)S(=O)(=O)O (some centres not stated)
[4]
  CC50: > 100000 nM
[5]
  CC50: > 100000 nM
[6]
  CC50: > 100000 nM
[21]
  IC50: 3800 nM

## CC(C)C[C@H](NC(=O)[C@@H](NC(=O)OCc1ccccc1)[C@@H](C)OC(C)(C)C)C(=O)N[C@H](/C=C/C(=O)C1CC1)C[C@@H]1CCNC1=O
[20]
  Ki: 99 nM

## CC(=O)N[C@H](C(=O)N[C@H](C(=O)N[C@@H](CC(C)C)C(=O)N[C@@H](CCC(=O)N(C)C)C(=O)Cn1[nH]c(=O)c2c([N+](=O)[O-])cccc2c1=O)[C@@H](C)OCc1ccccc1)C(C)C
[1]
  IC50: 600 nM

## Cc1cc(-c2ccc(N/N=C3\C=Cc4c(S(=O)(=O)O)cc(S(=O)(=O)O)c(N)c4C3=O)c(C)c2)ccc1N/N=C1\C=Cc2c(S(=O)(=O)O)cc(S(=O)(=O)O)c(N)c2C1=O
[2]
  IC50: 200 nM
  Ki: 73 nM

## CSCC[C@@H](C=O)NC(=O)[C@H](CC(C)C)NC(=O)[C@H](CC(C)C)NC(C)=O (Ac-Leu-Leu-Met-aldehyde)
[14]
  CC50: > 100000 nM
[15]
  CC50: > 100000 nM
[16]
  CC50: > 100000 nM
[17]
  CC50: > 100000 nM

## O=c1cc(-c2ccccc2)oc2cc(O)c(O)c(O)c12 [BAICALEIN]
[7]
  CC50: > 200000 nM
